Results taken from publication PMC4457528, “Identification of Novel Small Molecule Inhibitors of Oncogenic RET Kinase” (PLoS ONE, 2015).
Where “and” joins values, the source holds several entries; their conditions need not be identical. Equal entries are not always repeated. Where two headings read alike, the source gives them in different places.

Experiments:
Experiment in all cases: KinomeScan kinase panel, single concentration 10 µM
Assay type in all cases: binding
KinomeScan kinase panel [1] = molecular target: T1, KinomeScan kinase panel (Homo sapiens, UniProt P00519, Y253F); settings: 10 µM, read-out: score (%)
T1 construct: purchased DiscoveRx (KinomeScan)

KinomeScan kinase panel [2] = molecular target: T2, KinomeScan kinase panel (Homo sapiens, UniProt P04626); settings: ERBB2, 10 µM; read-out: score (%)
T2 construct: purchased DiscoveRx (KinomeScan)
T2 sequence (P04626 23-1255): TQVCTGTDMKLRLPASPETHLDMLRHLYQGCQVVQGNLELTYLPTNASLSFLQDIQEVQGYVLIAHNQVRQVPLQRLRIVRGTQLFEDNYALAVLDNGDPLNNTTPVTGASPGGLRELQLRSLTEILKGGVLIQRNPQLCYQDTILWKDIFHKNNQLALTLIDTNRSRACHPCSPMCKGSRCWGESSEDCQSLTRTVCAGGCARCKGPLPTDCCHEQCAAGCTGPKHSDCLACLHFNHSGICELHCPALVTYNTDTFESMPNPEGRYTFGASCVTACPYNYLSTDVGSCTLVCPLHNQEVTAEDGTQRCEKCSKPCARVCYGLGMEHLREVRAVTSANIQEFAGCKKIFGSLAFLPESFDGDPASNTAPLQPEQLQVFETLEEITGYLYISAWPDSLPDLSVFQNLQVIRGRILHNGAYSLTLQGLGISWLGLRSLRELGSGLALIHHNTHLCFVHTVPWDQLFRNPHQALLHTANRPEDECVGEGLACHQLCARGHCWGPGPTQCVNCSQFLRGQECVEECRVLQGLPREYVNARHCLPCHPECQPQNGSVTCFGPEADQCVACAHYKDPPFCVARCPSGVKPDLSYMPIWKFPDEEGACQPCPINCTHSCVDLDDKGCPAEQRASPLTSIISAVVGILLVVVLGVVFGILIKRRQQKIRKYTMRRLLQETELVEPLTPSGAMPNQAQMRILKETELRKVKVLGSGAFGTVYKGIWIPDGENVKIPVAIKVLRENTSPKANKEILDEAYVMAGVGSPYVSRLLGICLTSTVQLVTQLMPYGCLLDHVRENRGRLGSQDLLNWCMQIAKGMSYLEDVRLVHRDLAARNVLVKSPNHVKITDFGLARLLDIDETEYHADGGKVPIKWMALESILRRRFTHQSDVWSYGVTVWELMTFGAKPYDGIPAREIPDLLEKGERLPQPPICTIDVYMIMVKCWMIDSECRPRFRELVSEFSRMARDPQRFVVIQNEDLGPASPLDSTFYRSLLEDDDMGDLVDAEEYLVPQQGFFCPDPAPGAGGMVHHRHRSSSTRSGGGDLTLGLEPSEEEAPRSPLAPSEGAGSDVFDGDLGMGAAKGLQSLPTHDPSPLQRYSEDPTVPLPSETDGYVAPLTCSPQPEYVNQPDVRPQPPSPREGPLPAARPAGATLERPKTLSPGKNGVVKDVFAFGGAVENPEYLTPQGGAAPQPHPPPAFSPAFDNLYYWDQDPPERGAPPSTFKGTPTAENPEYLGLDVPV

KinomeScan kinase panel [3] = molecular target: T3, KinomeScan kinase panel (Homo sapiens, UniProt P15056, V600E); settings: BRAF(V600E), 10 µM; read-out: score (%)
T3 construct: purchased DiscoveRx (KinomeScan)
T3 sequence (P15056 whole entry V600E): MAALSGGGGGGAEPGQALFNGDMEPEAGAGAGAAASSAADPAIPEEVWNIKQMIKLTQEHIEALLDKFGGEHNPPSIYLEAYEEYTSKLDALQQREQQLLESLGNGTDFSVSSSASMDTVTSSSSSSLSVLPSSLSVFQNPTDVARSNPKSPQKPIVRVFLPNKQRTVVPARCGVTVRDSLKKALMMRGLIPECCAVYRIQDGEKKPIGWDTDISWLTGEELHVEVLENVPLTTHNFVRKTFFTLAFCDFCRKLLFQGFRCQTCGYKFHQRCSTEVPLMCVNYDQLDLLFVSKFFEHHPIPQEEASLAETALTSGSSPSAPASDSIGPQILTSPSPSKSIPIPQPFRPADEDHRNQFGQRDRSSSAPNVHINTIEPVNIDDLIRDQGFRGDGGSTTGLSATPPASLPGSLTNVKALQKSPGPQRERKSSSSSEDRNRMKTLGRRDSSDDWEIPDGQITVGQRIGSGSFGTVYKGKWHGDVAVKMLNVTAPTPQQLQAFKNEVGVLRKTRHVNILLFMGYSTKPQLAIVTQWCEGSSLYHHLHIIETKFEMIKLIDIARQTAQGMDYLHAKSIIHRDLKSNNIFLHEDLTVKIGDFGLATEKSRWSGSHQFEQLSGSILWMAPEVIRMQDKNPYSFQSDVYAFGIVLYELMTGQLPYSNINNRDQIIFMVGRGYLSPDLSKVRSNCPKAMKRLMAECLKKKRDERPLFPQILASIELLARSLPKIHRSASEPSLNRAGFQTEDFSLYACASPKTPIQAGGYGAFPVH

KinomeScan kinase panel [4] = molecular target: T4, KinomeScan kinase panel (Homo sapiens, UniProt P21802); settings: FGFR2, 10 µM; read-out: score (%)
T4 construct: purchased DiscoveRx (KinomeScan)

KinomeScan kinase panel [5] = molecular target: T5, KinomeScan kinase panel (Homo sapiens, UniProt P41240); settings: CSK, 10 µM
T5 construct: purchased DiscoveRx (KinomeScan)
T5 sequence (P41240 whole entry): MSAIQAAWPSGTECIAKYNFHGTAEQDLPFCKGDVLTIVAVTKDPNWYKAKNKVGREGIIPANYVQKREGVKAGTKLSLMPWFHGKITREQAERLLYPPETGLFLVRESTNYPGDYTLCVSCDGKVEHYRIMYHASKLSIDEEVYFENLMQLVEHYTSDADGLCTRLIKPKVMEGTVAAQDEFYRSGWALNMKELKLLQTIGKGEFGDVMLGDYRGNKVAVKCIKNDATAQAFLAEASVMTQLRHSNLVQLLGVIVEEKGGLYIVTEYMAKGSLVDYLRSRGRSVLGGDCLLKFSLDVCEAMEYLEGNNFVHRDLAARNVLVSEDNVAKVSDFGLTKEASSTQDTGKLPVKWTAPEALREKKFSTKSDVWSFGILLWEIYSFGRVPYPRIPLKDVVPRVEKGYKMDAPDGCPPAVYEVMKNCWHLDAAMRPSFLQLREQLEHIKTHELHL

KinomeScan kinase panel [6] = molecular target: T6, KinomeScan kinase panel (Homo sapiens, UniProt P45985); settings: MEK4, 10 µM; read-out: score (%)
T6 construct: purchased DiscoveRx (KinomeScan)
T6 sequence (P45985 1-399): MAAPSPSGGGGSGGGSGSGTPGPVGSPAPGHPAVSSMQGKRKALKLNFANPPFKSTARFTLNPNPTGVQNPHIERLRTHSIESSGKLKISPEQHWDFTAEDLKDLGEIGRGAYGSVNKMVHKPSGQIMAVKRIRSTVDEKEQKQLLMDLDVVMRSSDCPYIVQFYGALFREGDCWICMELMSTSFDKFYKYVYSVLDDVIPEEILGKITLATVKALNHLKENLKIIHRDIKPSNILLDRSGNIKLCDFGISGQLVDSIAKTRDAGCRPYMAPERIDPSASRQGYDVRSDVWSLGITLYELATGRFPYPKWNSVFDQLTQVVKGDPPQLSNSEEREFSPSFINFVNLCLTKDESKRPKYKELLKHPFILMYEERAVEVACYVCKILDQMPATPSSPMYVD

KinomeScan kinase panel [7] = molecular target: T7, KinomeScan kinase panel (Homo sapiens, UniProt P50613); settings: CDK7, 10 µM; read-out: score (%)
T7 construct: purchased DiscoveRx (KinomeScan)
T7 sequence (P50613 whole entry): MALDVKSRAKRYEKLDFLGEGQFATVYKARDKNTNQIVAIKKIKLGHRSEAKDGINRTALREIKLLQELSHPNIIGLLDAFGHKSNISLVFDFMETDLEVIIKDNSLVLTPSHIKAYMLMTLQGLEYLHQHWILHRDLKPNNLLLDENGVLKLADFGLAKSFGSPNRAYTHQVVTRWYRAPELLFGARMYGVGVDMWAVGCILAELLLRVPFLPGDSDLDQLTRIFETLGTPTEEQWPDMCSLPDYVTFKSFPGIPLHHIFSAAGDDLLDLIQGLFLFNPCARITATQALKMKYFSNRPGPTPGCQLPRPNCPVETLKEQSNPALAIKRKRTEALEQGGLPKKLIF

KinomeScan kinase panel [8] = molecular target: T8, KinomeScan kinase panel (Homo sapiens, UniProt P54764); settings: EPHA4, 10 µM; read-out: score (%)
T8 construct: purchased DiscoveRx (KinomeScan)
T8 sequence (P54764 20-986): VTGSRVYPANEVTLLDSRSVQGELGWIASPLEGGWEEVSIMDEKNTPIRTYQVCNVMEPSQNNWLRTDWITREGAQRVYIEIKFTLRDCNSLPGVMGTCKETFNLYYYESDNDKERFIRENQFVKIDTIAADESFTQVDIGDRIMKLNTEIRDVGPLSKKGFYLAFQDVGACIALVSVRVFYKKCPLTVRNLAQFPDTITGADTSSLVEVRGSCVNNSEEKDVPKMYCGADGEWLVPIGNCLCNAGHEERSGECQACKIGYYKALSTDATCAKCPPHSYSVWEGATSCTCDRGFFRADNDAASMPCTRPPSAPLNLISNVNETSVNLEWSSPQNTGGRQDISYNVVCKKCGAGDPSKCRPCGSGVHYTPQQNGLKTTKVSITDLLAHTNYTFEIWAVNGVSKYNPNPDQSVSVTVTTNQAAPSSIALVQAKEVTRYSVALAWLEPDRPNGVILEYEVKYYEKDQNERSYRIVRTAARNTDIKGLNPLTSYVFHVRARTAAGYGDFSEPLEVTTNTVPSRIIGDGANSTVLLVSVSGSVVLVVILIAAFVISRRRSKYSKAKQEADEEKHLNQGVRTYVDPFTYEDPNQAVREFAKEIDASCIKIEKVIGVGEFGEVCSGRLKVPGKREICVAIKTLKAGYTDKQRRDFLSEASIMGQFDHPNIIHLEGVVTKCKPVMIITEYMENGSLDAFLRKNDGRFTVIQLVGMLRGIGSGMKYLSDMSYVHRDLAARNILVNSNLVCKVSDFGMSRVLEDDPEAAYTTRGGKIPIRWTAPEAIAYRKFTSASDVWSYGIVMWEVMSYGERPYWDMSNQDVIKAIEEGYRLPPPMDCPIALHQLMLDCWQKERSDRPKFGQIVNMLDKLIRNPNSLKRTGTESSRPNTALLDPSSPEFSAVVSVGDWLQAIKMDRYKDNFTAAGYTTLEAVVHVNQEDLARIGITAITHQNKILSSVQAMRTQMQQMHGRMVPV

KinomeScan kinase panel [9] = molecular target: T9, KinomeScan kinase panel (Homo sapiens, UniProt Q04759); settings: 10 µM, read-out: score (%)
T9 construct: purchased DiscoveRx (KinomeScan)
T9 sequence (Q04759 whole entry): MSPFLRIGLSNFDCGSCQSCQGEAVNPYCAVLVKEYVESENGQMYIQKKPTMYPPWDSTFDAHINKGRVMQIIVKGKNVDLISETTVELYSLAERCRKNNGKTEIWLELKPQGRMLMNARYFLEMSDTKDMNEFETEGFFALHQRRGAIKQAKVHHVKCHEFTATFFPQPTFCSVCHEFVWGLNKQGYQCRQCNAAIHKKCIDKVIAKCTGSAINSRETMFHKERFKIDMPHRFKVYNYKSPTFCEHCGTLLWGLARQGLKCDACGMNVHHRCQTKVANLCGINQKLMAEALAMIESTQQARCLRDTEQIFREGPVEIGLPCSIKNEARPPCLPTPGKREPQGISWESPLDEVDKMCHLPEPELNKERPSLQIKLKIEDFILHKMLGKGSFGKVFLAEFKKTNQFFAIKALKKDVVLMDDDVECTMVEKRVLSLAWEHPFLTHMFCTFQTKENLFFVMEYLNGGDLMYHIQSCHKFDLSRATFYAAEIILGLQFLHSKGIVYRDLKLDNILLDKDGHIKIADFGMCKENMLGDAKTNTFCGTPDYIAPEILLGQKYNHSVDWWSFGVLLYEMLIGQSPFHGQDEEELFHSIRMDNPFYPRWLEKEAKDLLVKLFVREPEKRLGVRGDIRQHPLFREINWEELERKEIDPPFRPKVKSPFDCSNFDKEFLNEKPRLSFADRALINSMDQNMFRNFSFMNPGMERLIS

KinomeScan kinase panel [10] = molecular target: T10, KinomeScan kinase panel (Homo sapiens, UniProt Q13237); settings: read-out: score (%)
T10 construct: purchased DiscoveRx (KinomeScan)
T10 sequence (Q13237 1-762): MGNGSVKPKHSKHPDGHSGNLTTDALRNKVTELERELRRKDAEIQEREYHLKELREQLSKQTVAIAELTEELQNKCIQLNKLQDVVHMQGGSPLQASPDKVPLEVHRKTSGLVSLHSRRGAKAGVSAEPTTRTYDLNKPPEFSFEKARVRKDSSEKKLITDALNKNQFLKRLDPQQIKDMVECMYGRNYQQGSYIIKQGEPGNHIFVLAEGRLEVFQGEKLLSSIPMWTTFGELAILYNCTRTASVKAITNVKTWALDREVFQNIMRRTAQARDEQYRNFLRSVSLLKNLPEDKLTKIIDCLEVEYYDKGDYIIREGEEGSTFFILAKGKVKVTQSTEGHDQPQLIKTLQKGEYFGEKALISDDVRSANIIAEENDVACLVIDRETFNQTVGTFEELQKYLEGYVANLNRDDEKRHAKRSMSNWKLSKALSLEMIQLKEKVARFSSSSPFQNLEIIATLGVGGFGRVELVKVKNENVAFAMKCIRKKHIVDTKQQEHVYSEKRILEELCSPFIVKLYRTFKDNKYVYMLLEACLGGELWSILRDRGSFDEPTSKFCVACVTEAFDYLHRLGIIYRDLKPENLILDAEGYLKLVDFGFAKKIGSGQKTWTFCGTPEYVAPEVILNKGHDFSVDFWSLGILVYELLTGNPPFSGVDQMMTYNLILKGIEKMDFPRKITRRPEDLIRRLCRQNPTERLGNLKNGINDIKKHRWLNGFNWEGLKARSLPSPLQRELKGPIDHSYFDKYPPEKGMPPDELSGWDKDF

KinomeScan kinase panel [11] = molecular target: T11, KinomeScan kinase panel (Homo sapiens, UniProt Q13554); settings: CAMK2B, 10 µM; read-out: score (%)
T11 construct: purchased DiscoveRx (KinomeScan)

KinomeScan kinase panel [12] = molecular target: T12, KinomeScan kinase panel (Homo sapiens, UniProt Q96L34); settings: MARK4, 10 µM
T12 construct: purchased DiscoveRx (KinomeScan)
T12 sequence (Q96L34 1-752): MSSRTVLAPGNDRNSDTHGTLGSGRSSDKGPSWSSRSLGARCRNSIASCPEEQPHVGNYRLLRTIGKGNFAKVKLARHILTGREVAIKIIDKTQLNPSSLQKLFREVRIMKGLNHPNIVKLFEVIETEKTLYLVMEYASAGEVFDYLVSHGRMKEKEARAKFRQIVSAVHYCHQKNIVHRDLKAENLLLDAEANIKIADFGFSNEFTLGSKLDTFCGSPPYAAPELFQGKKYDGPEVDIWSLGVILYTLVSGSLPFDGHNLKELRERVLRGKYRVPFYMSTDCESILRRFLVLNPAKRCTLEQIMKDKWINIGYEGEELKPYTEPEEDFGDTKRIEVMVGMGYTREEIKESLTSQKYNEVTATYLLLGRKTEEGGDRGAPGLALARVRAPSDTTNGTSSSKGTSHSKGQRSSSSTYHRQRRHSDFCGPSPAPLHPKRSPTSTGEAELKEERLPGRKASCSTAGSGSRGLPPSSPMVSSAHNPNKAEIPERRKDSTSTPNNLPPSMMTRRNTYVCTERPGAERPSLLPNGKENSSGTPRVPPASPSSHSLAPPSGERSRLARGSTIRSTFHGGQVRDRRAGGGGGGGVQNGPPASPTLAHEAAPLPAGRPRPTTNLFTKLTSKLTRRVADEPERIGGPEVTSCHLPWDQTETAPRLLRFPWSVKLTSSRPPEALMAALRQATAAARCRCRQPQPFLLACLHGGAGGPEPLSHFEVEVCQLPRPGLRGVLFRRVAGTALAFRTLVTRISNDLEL

KinomeScan kinase panel [13] = tested on: KinomeScan kinase panel
[14] = EGFR(L747-E749del. A750P), 10 µM
[15] = EGFR(L747-S752del. P753S), 10 µM

Row | Structure (SMILES) | remaining binding at 10 µM (KinomeScan kinase panel [1]; ABL1(Y253F)) | remaining binding at 10 µM (KinomeScan kinase panel [2]) | remaining binding at 10 µM (KinomeScan kinase panel [3]) | remaining binding at 10 µM (KinomeScan kinase panel [4]) | score (%) (KinomeScan kinase panel [5]) | remaining binding at 10 µM (KinomeScan kinase panel [6]) | remaining binding at 10 µM (KinomeScan kinase panel [7]) | remaining binding at 10 µM (KinomeScan kinase panel [8]) | remaining binding at 10 µM (KinomeScan kinase panel [9]; PRKCQ) | remaining binding at 10 µM (KinomeScan kinase panel [10]; PRKG2, 10 µM) | remaining binding at 10 µM (KinomeScan kinase panel [11]) | score (%) (KinomeScan kinase panel [12]) | score (%) (KinomeScan kinase panel [13]; FLT3(ITD), 10 µM) | score (%) (KinomeScan kinase panel [13]; [14]) | score (%) (KinomeScan kinase panel [13]; [15]) | score (%) (KinomeScan kinase panel [13]; EGFR(L747-T751del.Sins), 10 µM) | also measured
1 | CCN1CCN(Cc2ccc(NC(=O)c3ccc(C)c(NC(=O)c4cncc(-c5cccs5)c4)c3)cc2C(F)(F)F)CC1 [ALW-II-41-27] | 0.2% | 11% | 0.55% | 4.3% | 0.65% | > 30% | 26% | 0% | 22% | > 30% | > 30% | nb (Hits values higher than 30% were considered negative (no binding: nb)) | 0.4% |  |  |  | score (%) (KinomeScan kinase panel [13]): 0.55% and 3% and 1.8%; score (%) (KinomeScan kinase panel [13]; kinase TAO1, 10 µM): 12%
2 | CCN1CCN(Cc2ccc(NC(=O)c3ccc(C)c(/C=C/c4cnc5[nH]ccc5c4Cl)c3)cc2C(F)(F)F)CC1 [HG-6-63-01, (E)-3-(2-(4-chloro-1H-pyrrolo[2,3-b]pyridin-5-yl)vinyl)-N-(4-((4-ethylpiperazin-1-yl)methyl)-3-(trifluoromethyl)phenyl)-4-methylbenzamide] | 0.1% | 21% | 0.2% | 1.6% | 2.1% | > 30% | > 30% | 0.55% | > 30% | > 30% | > 30% | 25% | 0.1% | 0% | 0% | 0% | 
3 | CCN1CCN(Cc2ccc(NC(=O)c3ccc(C)c(C#Cc4cccnc4)c3)cc2C(F)(F)F)CC1 [XMD15-44] |  | 0.5% | 0.05% | 0.5% | 0.15% | > 30% | 1.6% | 0% |  |  | > 30% | nb (Hits values higher than 30% were considered negative (no binding: nb)) | 0.1% | 1.2% | 0.9% | 0.45% | remaining binding at 10 µM (KinomeScan kinase panel [1]; ABL1(Y253F)-phosphorylated): 0.15%; remaining binding at 10 µM (KinomeScan kinase panel [9]; kinase PRKCQ): 55%; remaining binding at 10 µM (KinomeScan kinase panel [10]; kinase PRKG2, 10 µM): 97%
